# From patent US20040171566A1, “Antisense modulation of p38 mitogen activated protein kinase expression” (priority 1999, published 2004)
# In the oligonucleotide strings, read from the 5' end, every base follows the letter of its sugar. An asterisk marks phosphorothioate; unmarked linkages are phosphodiester. Other units and linkages are bracketed, terminal groups are in braces. A string of capitals states the bases alone. e = 2'-O-(2-methoxyethyl) (MOE); [5mC] = 5-methylcytosine; d = 2'-deoxy (DNA)
# Key:
# Type in all cases: cell-based
# [1] = system: mouse p38α mRNA; assay: Inhibition of mouse p38α mRNA expression in bEND.3 cells, Northern blot
# Procedure: (§1) bEND.3, a mouse endothelial cell line (gift of Dr. Werner Risau; see Montesano et al., Cell, 1990, 62, 435, and Stepkowski et al., J. Immunol., 1994, 153, 5336) were grown in high-glucose DMEM (Life Technologies, Gaithersburg, Md.) medium containing 10% fetal bovine serum (FBS) and 1% Penicillin/Streptomycinin. Cells were plated at approximately 2×10^5 cells per 100 mm dish. Within 48 hours of plating, the cells were washed with phosphate-buffered saline (Life Technologies). Then, Opti-MEM7 medium containing 3 μg/mL LIPOFECTIN^7 and an appropriate amount of oligonucleotide were added to the cells. As a control, cells were treated with LIPOFECTIN^7 without oligonucleotide under the same conditions and for the same times as the oligonucleotide-treated samples.
# (§2) After 4 hours at 37° C., the medium was replaced with high glucose DMEM medium containing 10% FBS and 1% Penicillin/Streptomycinin. The cells were typically allowed to recover overnight (about 18 to 24 hours) before RNA and/or protein assays were performed as described in Example 2. The p38α, p38β and G3PDH probes used were identical to those described in Example 2.
# (§3) Rat p38α antisense oligonucleotides were screened in bEND.3 cells for inhibition of p38α and p38β mRNA expression. The concentration of oligonucleotide used was 100 nM. Oligonucleotides 21844 (SEQ ID NO. 47), 21845 (SEQ ID NO. 48), 21872 (SEQ ID NO. 51), 21873 (SEQ ID NO. 52), 21875 (SEQ ID NO. 54), and 21876 (SEQ ID NO.
# (§4) Mouse p38β antisense sequences were screened in bEND.3 cells as described in Example 4.
# [2] = system: rat p38α mRNA; assay: Inhibition of rat p38α mRNA expression in A-10 cells, Northern blot; conditions: Rat A-10 cells, 200 nM oligonucleotide, 24 hours
# Procedure: Rat p38α antisense oligonucleotides were screened in Rat A-10 cells. A-10 cells (American Type Culture Collection, Manassas, Va.) were grown in high-glucose DMEM (Life Technologies, Gaithersburg, Md.) medium containing 10% fetal calf serum (FCS). Cells were treated with oligonucleotide as described in Example 2. Oligonucleotide concentration was 200 nM. mRNA was isolated 24 hours after time zero and quantitated by Northern blot as described in Example 2.
# [3] = system: mouse p38β mRNA; assay: Inhibition of mouse p38β mRNA expression in bEND.3 cells, Northern blot
# Procedure: as §1, §2, §3, §4
# [4] = system: IL-6 secretion; assay: IL-6 secretion by IL-1 stimulated bEND.3 cells, ELISA; conditions: 48 hours after oligonucleotide
# Procedure: p38 MAPK antisense oligonucleotides were tested for their ability to reduce IL-6 secretion. bEND.3 cells were cultured and treated as described in Example 4 except that 48 hours after oligonucleotide treatment, cells were stimulated for 6 hours with 1 ng/mL recombinant mouse IL-1 (R&D Systems, Minneapolis, Minn.). IL-6 was measured in the medium using an IL-6 ELISA kit (Endogen Inc., Woburn, Mass.).
# [5] = system: mouse p38α mRNA; assay: Mouse p38α mRNA levels in bEND.3 cells, quantitative real-time PCR; conditions: mouse bEND.3 cells, at 50 nM
# Outline: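 Mouse bEND.3 cells, antisense oligonucleotide-treated; p38α mRNA measured by one-step real-time RT-PCR (RT 30 min at 48 °C, then 40 cycles) with a FAM/TAMRA probe. Levels normalized to GAPDH or RiboGreen total RNA, and percent inhibition derived from standard curves of untreated-control mRNA.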
# [6] = mouse p38β antisense oligonucleotides, screened as in Example 4
# [7] = 100 nM rat p38α antisense oligonucleotide
# [8] = DOSE 100, 1 ng/mL mouse IL-1 for 6 hours
substance,measurement,setting,value
ToAoCoCoAsCsCsGsTsGsTsGsGsCsCsAoCoAoToA (antisense eTeAe[5mC]e[5mC]eA*d[5mC]*d[5mC]*dG*dT*dG*dT*dG*dG*d[5mC]*d[5mC]*eAe[5mC]eAeTeA) [ISIS 100810],% p38α mRNA INHIBITION,[1]; [6],1%
AoCoAoToTsGsCsTsGsGsGsCsTsTsCsAoGoGoToC (antisense eAe[5mC]eAeTeT*dG*d[5mC]*dT*dG*dG*dG*d[5mC]*dT*dT*d[5mC]*eAeGeGeTe[5mC]) [ISIS 100808],% p38α mRNA INHIBITION,[1]; [6],13%
GoAoGoCoCsTsGsTsGsCsCsTsGsGsCsAoCoToGoG (antisense eGeAeGe[5mC]e[5mC]*dT*dG*dT*dG*d[5mC]*d[5mC]*dT*dG*dG*d[5mC]*eAe[5mC]eTeGeG) [ISIS 21877],% p38α mRNA INHIBITION,[1]; [7],55%
same,% p38α mRNA EXPRESSION,[2],12%
same,% p38β mRNA Inhibition,[3]; [7],13%
GoCoAoGoAsCsTsGsAsGsCsCsGsTsAsGoGoCoGoC (antisense eGe[5mC]eAeGeA*d[5mC]*dT*dG*dA*dG*d[5mC]*d[5mC]*dG*dT*dA*eGeGe[5mC]eGe[5mC]) [ISIS 100803],% p38α mRNA INHIBITION,[1]; [6],18%
GoGoAoToGsGsAsCsAsGsAsAsCsAsGsAoAoGoCoA (antisense eGeGeAeTeG*dG*dA*d[5mC]*dA*dG*dA*dA*d[5mC]*dA*dG*eAeAeGe[5mC]eA) [ISIS 21874],% p38α mRNA INHIBITION,[1]; [7],38%
same,% p38α mRNA EXPRESSION,[2],22%
same,% p38β mRNA Inhibition,[3]; [7],21%
CoAoToCoAsTsCsAsGsGsGsTsCsGsTsGoGoToAoC (antisense e[5mC]eAeTe[5mC]eA*dT*d[5mC]*dA*dG*dG*dG*dT*d[5mC]*dG*dT*eGeGeTeAe[5mC]) [ISIS 21871],% p38α mRNA INHIBITION,[1]; dose 1 nM,1%
same,% p38α mRNA INHIBITION,[1]; dose 5 nM,23%
same,% p38α mRNA INHIBITION,[1]; dose 25 nM,34%
same,% p38α mRNA INHIBITION,[1]; dose 100 nM (dose response),89%
same,% p38α mRNA EXPRESSION,[2],12%
same,% p38β mRNA Inhibition,[3]; dose 5 nM,4%
same,% p38β mRNA Inhibition,[3]; dose 25 nM,24%
same,% p38β mRNA Inhibition,[3]; dose 100 nM (dose response),56%
same,% IL-6 INHIBITION,"[4]; DOSE 200, 1 ng/mL mouse IL-1 for 6 hours",23%
GoGoToAoAsGsCsTsTsCsTsGsAsCsAsCoToToCoA (antisense eGeGeTeAeA*dG*d[5mC]*dT*dT*d[5mC]*dT*dG*dA*d[5mC]*dA*e[5mC]eTeTe[5mC]eA) [ISIS 21845],% p38α mRNA EXPRESSION,[2],25%
AoToGoGoAsTsGsTsGsGsCsCsGsGsCsGoToGoAoA (antisense eAeTeGeGeA*dT*dG*dT*dG*dG*d[5mC]*d[5mC]*dG*dG*d[5mC]*eGeTeGeAeA) [ISIS 100806],% p38α mRNA INHIBITION,[1]; [6],3%
same,% p38β mRNA Inhibition,[3]; [6],22%
GoGoCoAoCsAsAsAsGsCsTsAsAsTsGsAoCoToToC (antisense eGeGe[5mC]eAe[5mC]*dA*dA*dA*dG*d[5mC]*dT*dA*dA*dT*dG*eAe[5mC]eTeTe[5mC]) [ISIS 21872],% p38α mRNA INHIBITION,[1]; dose 25 nM,35%
same,% p38α mRNA INHIBITION,[1]; dose 100 nM (dose response),76%
same,% p38α mRNA EXPRESSION,[2],13%
same,% p38β mRNA Inhibition,[3]; dose 100 nM (dose response),1%
ToCoToToCsCsAsAsTsGsGsAsGsAsAsAoCoToGoG (antisense eTe[5mC]eTeTe[5mC]*d[5mC]*dA*dA*dT*dG*dG*dA*dG*dA*dA*eAe[5mC]eTeGeG) [ISIS 21881],% p38α mRNA EXPRESSION,[2],31%
GoGoCoToAsCsCsAsTsGsAsGsTsGsAsGoAoAoGoA (antisense eGeGe[5mC]eTeA*d[5mC]*d[5mC]*dA*dT*dG*dA*dG*dT*dG*dA*eGeAeAeGeA) [ISIS 21879],% p38α mRNA EXPRESSION,[2],11%
ToToAoCoAsGsCsCsAsCsCsTsTsCsTsGoGoCoGoC (antisense eTeTeAe[5mC]eA*dG*d[5mC]*d[5mC]*dA*d[5mC]*d[5mC]*dT*dT*d[5mC]*dT*eGeGe[5mC]eGe[5mC]) [ISIS 100804],% p38α mRNA INHIBITION,[1]; [6],18%
same,% IL-6 INHIBITION,[4]; [8],57%
AoGoGoCoTsAsGsAsGsCsCsCsAsGsGsAoGoCoCoA (antisense eAeGeGe[5mC]eT*dA*dG*dA*dG*d[5mC]*d[5mC]*d[5mC]*dA*dG*dG*eAeGe[5mC]e[5mC]eA) [ISIS 21876],% p38α mRNA EXPRESSION,[2],61%
same,% p38α mRNA INHIBITION,[2],39%
same,% p38β mRNA Inhibition,[3]; [7],minimal effects
GoAoGoCoAsGsGsCsAsGsAsCsTsGsCsCoAoAoGoG (antisense eGeAeGe[5mC]eA*dG*dG*d[5mC]*dA*dG*dA*d[5mC]*dT*dG*d[5mC]*e[5mC]eAeAeGeG) [ISIS 21875],% p38α mRNA INHIBITION,[1]; dose 25 nM,33%
same,% p38α mRNA INHIBITION,[1]; dose 100 nM (dose response),72%
same,% p38α mRNA EXPRESSION,[2],26%
same,% p38β mRNA Inhibition,[3]; [7],minimal effects
same,% p38β mRNA Inhibition,[3]; dose 1 nM,11%
same,% p38β mRNA Inhibition,[3]; dose 5 nM,16%
same,% p38β mRNA Inhibition,[3]; dose 25 nM,2%
same,% p38β mRNA Inhibition,[3]; dose 100 nM (dose response),4%
AoGoGoToGsCsTsCsAsGsGsAsCsTsCsCoAoToToT (antisense eAeGeGeTeG*d[5mC]*dT*d[5mC]*dA*dG*dG*dA*d[5mC]*dT*d[5mC]*e[5mC]eAeTeTeT) [ISIS 21873],% p38α mRNA INHIBITION,[1]; dose 25 nM,54%
same,% p38α mRNA INHIBITION,[1]; dose 100 nM (dose response),92%
same,% p38α mRNA EXPRESSION,[2],19%
same,% p38β mRNA Inhibition,[3]; dose 1 nM,53%
same,% p38β mRNA Inhibition,[3]; dose 5 nM,31%
same,% p38β mRNA Inhibition,[3]; dose 25 nM,28%
same,% p38β mRNA Inhibition,[3]; dose 100 nM (dose response),25%
same,reduction of p38α mRNA,[5],> 70%
same,% IL-6 INHIBITION,[4]; [8],49%
CoAoGoGoCsCsAsCsAsGsAsCsCsAsGsAoToGoToC (antisense e[5mC]eAeGeGe[5mC]*d[5mC]*dA*d[5mC]*dA*dG*dA*d[5mC]*d[5mC]*dA*dG*eAeTeGeTe[5mC]) [ISIS 100812],% p38α mRNA INHIBITION,[1]; [6],17%
same,% p38β mRNA Inhibition,[3]; [6],36%
ToGoCoAoCsCsAsCsAsAsGsCsAsCsCsToGoGoAoG (antisense eTeGe[5mC]eAe[5mC]*d[5mC]*dA*d[5mC]*dA*dA*dG*d[5mC]*dA*d[5mC]*d[5mC]*eTeGeGeAeG) [ISIS 21878],% p38α mRNA INHIBITION,[1]; [7],25%
same,% p38α mRNA EXPRESSION,[2],35%
same,% p38β mRNA Inhibition,[3]; [7],10%
AoToCoCoTsCsAsGsCsTsCsGsCsAsGsToCoCoToC (antisense eAeTe[5mC]e[5mC]eT*d[5mC]*dA*dG*d[5mC]*dT*d[5mC]*dG*d[5mC]*dA*dG*eTe[5mC]e[5mC]eTe[5mC]) [ISIS 100809],% p38α mRNA INHIBITION,[1]; [6],14%
CoToGoCoGsAsCsAsTsTsTsTsCsCsAsGoCoGoGoC (antisense e[5mC]eTeGe[5mC]eG*dA*d[5mC]*dA*dT*dT*dT*dT*d[5mC]*d[5mC]*dA*eGe[5mC]eGeGe[5mC]) [ISIS 21844],% p38α mRNA INHIBITION,[1]; dose 25 nM,36%
same,% p38α mRNA INHIBITION,[1]; dose 100 nM (dose response),80%
same,% p38α mRNA EXPRESSION,[2],75%
same,% p38α mRNA INHIBITION,[2],25%
same,% p38β mRNA Inhibition,[3]; dose 25 nM,8%
same,% p38β mRNA Inhibition,[3]; dose 100 nM (dose response),5%
